# Where a name gives a salt, the structure may show the parent alone.
# Tests used:
# [1] = tested on: spontaneously hypertensive rats (SHR); experiment: Blood pressure and heart rate in spontaneously hypertensive rats, tail cuff method; format: in vivo, rat; details: for Blood pressure: tail cuff
# From the text: (§1) The above compounds are also active in lowering the blood pressure of spontaneously hypertensive rats (SHR). […] In the table, column 1 gives the compound used, column 2 the dose level, column 3, the route of administration, column 4, number of rats, column 5, the time of blood pressure measurement, column 6, blood pressure in mm (Hg), and column 7, heart rate.
# *B.P. measured by tail cuff method.
# [2] = tested on: spontaneously hypertensive rats (SHR); experiment: Blood pressure and heart rate in spontaneously hypertensive rats, femoral artery cannula; format: in vivo, rat; details: for Blood pressure: femoral artery cannula
# From the text: as §1
# **B.P. measured by femoral artery cannula.
# [3] = 30 mg/kg S.C., 0 hours (baseline), 8 rats
# [4] = 50 mg/kg S.C., 0 hours (baseline), 8 rats
# [5] = 3 mg/kg I.V., 0 hours (baseline)
# [6] = 10 mg/kg I.V., 0 hours (baseline)
smiles,measurement,setting,value
"CCCCCCCCCCCCCCCCCCC(COP(=O)([O-])OCC[N+](C)(C)C)OCC (racemic) [Compound 3, (d,l)-2-Ethoxy-1-[(2-trimethylaminoethoxy)phosphinyloxy]eicosane, hydroxy inner salt]",Blood pressure,"[1]; 5 mg/kg S.C., 3 hours, 5 rats",155 mm Hg
same,Blood pressure,"[1]; 5 mg/kg S.C., 4 hours, 5 rats",154 mm Hg
same,Blood pressure,"[1]; 5 mg/kg S.C., 5 hours, 5 rats",156 mm Hg
same,Heart Rate,[1]; [3],335 beats/min
same,Blood pressure,[1]; [3],188 mm Hg
same,Heart Rate,"[1]; 30 mg/kg S.C., 1 hour, 8 rats",328 beats/min
same,Blood pressure,"[1]; 30 mg/kg S.C., 1 hour, 8 rats",177 mm Hg
same,Heart Rate,"[1]; 30 mg/kg S.C., 2 hours, 8 rats",349 beats/min
same,Blood pressure,"[1]; 30 mg/kg S.C., 2 hours, 8 rats",151 mm Hg
same,Heart Rate,"[1]; 30 mg/kg S.C., 3 hours, 8 rats",346 beats/min
same,Blood pressure,"[1]; 30 mg/kg S.C., 3 hours, 8 rats",147 mm Hg
same,Heart Rate,"[1]; 30 mg/kg S.C., 4 hours, 8 rats",347 beats/min
same,Blood pressure,"[1]; 30 mg/kg S.C., 4 hours, 8 rats",156 mm Hg
same,Heart Rate,"[1]; 30 mg/kg S.C., 5 hours, 8 rats",341 beats/min
same,Blood pressure,"[1]; 30 mg/kg S.C., 5 hours, 8 rats",151 mm Hg
same,Heart Rate,[1]; [4],345 beats/min
same,Blood pressure,[1]; [4],190 mm Hg
same,Heart Rate,"[1]; 50 mg/kg S.C., 1 hour, 8 rats",352 beats/min
same,Blood pressure,"[1]; 50 mg/kg S.C., 1 hour, 8 rats",177 mm Hg
same,Heart Rate,"[1]; 50 mg/kg S.C., 2 hours, 8 rats",355 beats/min
same,Blood pressure,"[1]; 50 mg/kg S.C., 2 hours, 8 rats",149 mm Hg
same,Heart Rate,"[1]; 50 mg/kg S.C., 3 hours, 8 rats",367 beats/min
same,Blood pressure,"[1]; 50 mg/kg S.C., 3 hours, 8 rats",143 mm Hg
same,Heart Rate,"[1]; 50 mg/kg S.C., 4 hours, 8 rats",357 beats/min
same,Blood pressure,"[1]; 50 mg/kg S.C., 4 hours, 8 rats",139 mm Hg
same,Heart Rate,"[1]; 50 mg/kg S.C., 5 hours, 8 rats",359 beats/min
same,Blood pressure,"[1]; 50 mg/kg S.C., 5 hours, 8 rats",129 mm Hg
same,hypotensive effects in SHR (in words),"[1]; administered subcutaneously, various dose levels",hypotensive effects
same,Heart Rate,[2]; [5],335 beats/min
same,Blood pressure,[2]; [5],195 mm Hg
same,Heart Rate,"[2]; 3 mg/kg I.V., 1.0 hours",395 beats/min
same,Blood pressure,"[2]; 3 mg/kg I.V., 1.0 hours",173 mm Hg
same,Heart Rate,"[2]; 3 mg/kg I.V., .08 hours",280 beats/min
same,Blood pressure,"[2]; 3 mg/kg I.V., .08 hours",105 mm Hg
same,Heart Rate,"[2]; 3 mg/kg I.V., .25 hours",337 beats/min
same,Blood pressure,"[2]; 3 mg/kg I.V., .25 hours",140 mm Hg
same,Heart Rate,"[2]; 3 mg/kg I.V., .5 hours",370 beats/min
same,Blood pressure,"[2]; 3 mg/kg I.V., .5 hours",153 mm Hg
same,Heart Rate,[2]; [6],345 beats/min
same,Blood pressure,[2]; [6],198 mm Hg
same,Heart Rate,"[2]; 10 mg/kg I.V., 1.0 hours",365 beats/min
same,Blood pressure,"[2]; 10 mg/kg I.V., 1.0 hours",154 mm Hg
same,Heart Rate,"[2]; 10 mg/kg I.V., .08 hours",442 beats/min
same,Blood pressure,"[2]; 10 mg/kg I.V., .08 hours",78 mm Hg
same,Heart Rate,"[2]; 10 mg/kg I.V., .25 hours",420 beats/min
same,Blood pressure,"[2]; 10 mg/kg I.V., .25 hours",140 mm Hg
same,Heart Rate,"[2]; 10 mg/kg I.V., .5 hours",395 beats/min
same,Blood pressure,"[2]; 10 mg/kg I.V., .5 hours",153 mm Hg
